According to patent US11931347B2, “Method of screening for agents for differentiating stem cells” (MINERVA BIOTECHNOLOGIES CORPORATION, priority 2015, dated 2024):

How the values were obtained:
[1] = test system: PC-3 prostate cancer cells; experiment: cancer cell migration assay with Fabs and N-10 peptide; format: cell-based; conditions: FIG. 140
Method: (§1) The cancer sub-types that were tested were CHL-1 melanoma (MUC1*^+/NME7^+/NME7-X1^+), A2058 melanoma (MUC1*^+/NME7AB^+/NME7-X1^++), SK-OV-3 ovarian cancer (MUC1*^+/NME7^+/NME7-X1^+), A549 lung cancer (MUC1*^LO), T47D breast cancer (MUC1*^+++/NME7AB^+++/NME7-X1^+++), DU145 (MUC1*^++/NME7AB^+++/NME7-X1^+++) prostate cancer and PC-3 (MUC1*^−/NME7AB^+++/NME7-X1^+++) prostate cancer cells.
(§2) For the cancer cell migration experiment cancer cells were plated at varying densities into an Oris Cell Migration Assay Collagen-1 coated 96-well plate (Platypus Technologies LLC, Madison, Wis.). The Collagen-1 coated 96-well plate incorporates a specific vacuum plug which attaches to the bottom of each well, creating an area in which the cells cannot grow into. Once the cells have been plated at high densities into each well, they are allotted an 18-24 hour time period to attach to the bottom of the wells. Post-24 hour plugs are removed from the plate and then small molecule analogs are added to the wells. Images are taken of each well and represent time 0 (T=0) for each well. Images are taken of the wells at the 24, 48, 72, 96 and 120 hour time points. […] Images are imported into ImageJ (Rasband, W. S., ImageJ, U. S. National Institutes of Health, Bethesda, Md., USA, http://imagej.nih.gov/ij/, 1997-2016.) and the area remaining free of cells is calculated. […]

[2] = test system: DU145 prostate cancer cells; experiment: as above; format: cell-based; conditions: FIG. 140
Method: as §1, §2

[3] = test system: T47D breast cancer cells; experiment: cancer cell migration, invasion assay (Platypus/Oris system); format: cell-based, human; conditions: FIG. 140
Method: We then tested an expanded panel of agents, including agents known to inhibit cancer growth or migration (FIG. 17) (Horm et al., 2012; Meng & Yue, 2014; Zhen et al., 2014), which is characteristic of aggressive or metastatic cancers. We also synthesized a series of novel small molecules, tested them in the stem cell drug screening assay, and then synthesized analogs of the best hits. These small molecules are pictured in FIGS. 18-27. Both the known compounds and the novel compounds were tested in the stem cell drug screening assay. The effects of the small molecules on naïve versus primed state stem cells are shown in the photographs of FIGS. 29-72. The small molecules pictured in FIGS. 17-27 and the biologicals were also tested in a cancer cell migration assay. A structure activity relationship table is seen in FIG. 28. Potent cancer cell migration is characteristic of cancer cell invasion of other tissues and of metastasis. Typical migration assays involve coating a cell culture plate with fibronectin, collagen or the like, plating cancer cells and making a scar across through the cells and measuring the time it takes for the cancer cells to invade the void space. An alternative approach that gives more reliable data is the Platypus System which is a special multi-well cell culture plate with a juxtaposed set of plugs that block off a circle in the center of each well. Cancer cells are plated while the plugs are in place, then they are removed after the cells attach to the plate surface. […] A bar graph summarizing the results of the known anti-migration compounds compared to the anti-MUC1* Fab E6 and the first few small molecules synthesized is shown in FIG. 73. The effect of two novel small molecules MN1186 and MN1194, compared to the known anti-migration molecule SU11274, is shown in FIG. 75A-75U. FIG. 75V is a graph showing the measured inhibition of cancer cell migration at time 0, 24 hours or 48 hours for a number of compounds. […] FIG. 75X is a graph showing how IC50's of the small molecules of the invention were measured and calculated.
Percent inhibition of cancer cell migration was performed in a wound healing assay. The Percent area that the invading cancer cells occupied, in the presence of a drug candidate compared to the controls, was quantified by Image J cell software which enables cell counting from photographs. IC50's were calculated by performing migration experiments at several compound concentrations and then applying Hill's equation. Inhibition of cancer cell proliferation was quantified by automated cell counting in the presence or absence of a drug candidate. Here, the potency of the drug candidate was simply scored 4 for the highest degree of inhibition and 0 for the lowest. […] The effect of each drug candidate was scored 0-4, with 4 being the highest in inhibiting cell proliferation (FIG. 28).
For the cancer cell migration experiment cancer cells were plated at varying densities into an Oris Cell Migration Assay Collagen-1 coated 96-well plate (Platypus Technologies LLC, Madison, Wis.). The Collagen-1 coated 96-well plate incorporates a specific vacuum plug which attaches to the bottom of each well, creating an area in which the cells cannot grow into. Once the cells have been plated at high densities into each well, they are allotted an 18-24 hour time period to attach to the bottom of the wells. Post-24 hour plugs are removed from the plate and then small molecule analogs are added to the wells. Images are taken of each well and represent time 0 (T=0) for each well. Images are taken of the wells at the 24, 48, 72, 96 and 120 hour time points. Data analysis is conducted using the images taken at these specific time point. Images are imported into ImageJ (Rasband, W. S., ImageJ, U. S. National Institutes of Health, Bethesda, Md., USA, http://imagej.nih.gov/ij/, 1997-2016.) and the area remaining free of cells is calculated. […]

[4] = test system: MUC1* extracellular domain - NME1 dimers / NME7AB interaction; experiment: direct binding (gold nanoparticle) assay of MUC1*-NME interaction; parameters: species or system human; conditions: previously shown
Source text: WO2009/042815 discloses that in a direct binding assay a series of carboline molecules inhibited the interaction between the extracellular domain of MUC1* and NME proteins, especially NME1 dimers and NME7AB. […] We tested a panel of ten small molecules, including three carbolines (FIG. 1), and biologicals for their ability to inhibit naïve stem cell pluripotency or growth compared to primed state stem cells.
Most of the novel compounds of the invention are carbolines or carboline-like molecules. […] However, in our nanoparticle assay, we can only determine that a compound disrupts the interaction between MUC1* extracellular domain peptide and NME1 dimers or NME7AB. We cannot tell if the compound does so by binding to MUC1* or its ligand. Recall that our compound hits are first identified in the stem cell drug screening assay for their ability to inhibit stem cell pluripotency or proliferation. […]
Recall that we had previously shown that some carbolines inhibited the binding of ligands NME1 or NME7AB to the extracellular domain of the MUC1* growth factor receptor. The assay we used was a gold nanoparticle assay that only gives a readout when the targeted interaction is disrupted, so it could not determine whether the carboloines disrupted binding of MUC1* to its ligands by binding to the ligand, NME7AB, or to MUC1*. […]

With “N-10 peptide: truncated MUC1* extracellular domain peptide QFNQYKTEAASRYNLTISDVSVSDVPFPFSAQSGA (SEQ ID NO:4) (N-10 peptide of PSMGFR in which ten amino acids at the N-terminus has been removed)” the “inhibition of migration of PC-3 cells by Fabs and peptide” value [1] was “only the N-10 peptide inhibited migration”, the “inhibition of migration of DU145 prostate cancer cells by Fabs and peptide” value [2] was “inhibited migration” and the “inhibition of migration of T47D cells by Fabs and peptide” value [3] was “inhibited migration”. The “competitive inhibition of NME ligand binding to MUC1* extracellular domain” value [4] was “inhibits their binding to their cognate receptors including the MUC1* extracellular domain”.
